# Assay results reported in patent US11505798B2, “Methods and compositions for treating inflammatory diseases” (The Regents of the University of California, priority 2019, dated 2022).
# System: GAPLINC
# Experiment: qPCR of GAPLINC in MDMs pretreated with NF-κB inhibitor, then LPS stimulation
# Format: cell-based, human
# Details: MDMs pretreated with 10 uM, LPS 200 ng/ml for 6 h, vs DMSO
# Excerpt: FIGS. 14A-14I show monocytes isolated from human PBMCs and differentiated into macrophages were transfected with control or GAPLINC siRNA. […] Data from RNA-seq performed in biological duplicates. FIG. 14C: GAPLINC isoforms in MDMs as determined by Nanopore-based R2C2 sequencing. Data from Nanopore-sequencing performed in biological duplicates. FIG. 14D: Table representing read counts and percent of each GAPLINC isoform. FIG. 14E: Bi-directional vector expressing GFP-Zeocin on one side and GAPLINC on the other side. FIGS. 14F and 14G: qPCR analysis of GAPLINC expression in THP-1 cells expressing ectopic GAPLINC or empty-vector control. Levels of IL6 were quantified following stimulation with LPS (200 ng/ml) for 6 h; data pooled from three independent experiments. *p<0.05. FIG. 14H: qPCR analysis of GAPLINC in MDMs (n=3) pretreated with DMSO or BAY-7082 (10 uM), followed by LPS stimulation (200 ng/ml) for 6 h; data pooled from three independent experiments. *p<0.05. FIG. 14I: ATAC-seq analysis of monocytes and macrophages, untreated and treated with LPS (200 ng/ml) for 1 h, 6 h and 18 h.
# Next, we examined GAPLINC levels in primary MDMs in response to inflammation. […] Induction of positive control inflammatory genes TNFα, IL6, and CCL5 was confirmed (FIGS. 16B-16D). […]
smiles,measurement,value
Cc1ccc(S(=O)(=O)/C=C/C#N)cc1 [BAY11-7082],downregulation of GAPLINC upon LPS stimulation,impaired relative to control
